Source: PMC11396129, “Oxindole–benzothiazole hybrids as CDK2 inhibitors and anticancer agents: design, synthesis and biological evaluation” (BMC Chemistry, 2024)

What was measured:
NCI-H23 = experiment: NCI 60 panel growth inhibition (SRB), non-small cell lung cancer; type: cell-based, human; conditions: NCI-H23, 10 μM
Description: (§1) Screening of cytotoxic activity against a panel of sixty human tumor cell lines The selected compounds by NCI were evaluated for their anticancer activity in a two- stage process. […] Then, the output from the single dose screen is reported as a mean graph. […] Assay protocol. […] For a typical screening experiment, cells are inoculated into 96 well microtiter plates in 100 µL at plating densities ranging from 5000 to 40,000 cells/well depending on the doubling time of individual cell lines. […] After 24 h, two plates of each cell line are fixed in situ with TCA, to represent a measurement of the cell population for each cell line at the time of drug addition (Tz). The experimental drugs are solubilized in dimethyl sulfoxide at 400-fold the desired final maximum test concentration and stored frozen prior to use. At the time of drug addition, an aliquot of frozen concentrate is thawed and diluted to twice the desired final maximum test concentration with complete medium containing 50 µg/mL gentamicin. Additional four, 10-fold or ½ log serial dilutions are made to provide a total of five drug concentrations plus control. […] For adherent cells, the assay is terminated by the addition of cold TCA. […] The supernatant is discarded, and the plates are washed five times with tap water and air dried. […] Using the seven absorbance measurements [time zero, (Tz), control growth, (C), and test growth in the presence of drug at the five concentration levels (Ti)], the percentage growth is calculated at each of the drug concentrations levels. Percentage growth inhibition is calculated as: [(Ti Tz)/(C–Tz)] x 100 for concentrations for which Ti>/=Tz and [(Ti-Tz)/Tz] x 100 for concentrations for which Ti < Tz. Three dose response parameters are calculated for each experimental agent. […] The drug concentration resulting in total growth inhibition (TGI) is calculated from Ti = Tz. […] Values are calculated for each of these three parameters if the level of activity is reached; however, if the effect is not reached or is exceeded, the value for that parameter is expressed as greater or less than the maximum or minimum concentration tested.

HOP-62 = experiment: as above; type: cell-based, human; conditions: HOP-62, 10 μM
Description: as §1

NCI-H460 = experiment: as above; type: cell-based, human; conditions: NCI-H460, 10 μM
Description: as §1

NCI-H322M = experiment: as above; type: cell-based, human; conditions: 10 μM
Description: as §1

NCI-H226 = experiment: as above; type: cell-based, human; conditions: NCI-H226, 10 μM
Description: as §1

EKVX = experiment: as above; type: cell-based, human; conditions: 10 μM
Description: as §1

A549/ATCC = experiment: as above; type: cell-based, human; conditions: 10 μM
Description: as §1

HOP-92 = experiment: as above; type: cell-based, human; conditions: HOP-92, 10 μM
Description: as §1

NCI-H522 = experiment: as above; type: cell-based, human; conditions: NCI-H522, 10 μM
Description: as §1

OVCAR-8 = experiment: NCI 60 panel growth inhibition (SRB), ovarian cancer; type: cell-based, human; conditions: OVCAR-8, 10 μM
Description: as §1

NCI/ADR-RES = experiment: as above; type: cell-based, human; conditions: 10 μM
Description: as §1

SW-620 = experiment: NCI 60 panel growth inhibition (SRB), colon cancer; type: cell-based, human; conditions: SW-620, 10 μM
Description: as §1

KM12 = experiment: NCI 60 panel growth inhibition (SRB), colon cancer; type: cell-based, human; conditions: KM12, 10 μM
Description: as §1

HCC-2998 = experiment: NCI 60 panel growth inhibition (SRB), colon cancer; type: cell-based, human; conditions: HCC-2998, 10 μM
Description: as §1

HCT-116 = experiment: NCI 60 panel growth inhibition (SRB), colon cancer; type: cell-based, human; conditions: HCT-116, 10 μM
Description: as §1

HCT-15 = experiment: NCI 60 panel growth inhibition (SRB), colon cancer; type: cell-based, human; conditions: HCT-15, 10 μM
Description: as §1

COLO 205 = experiment: NCI 60 panel growth inhibition (SRB), colon cancer; type: cell-based, human; conditions: COLO 205, 10 μM
Description: as §1

DU-145 = experiment: NCI 60 panel growth inhibition (SRB), prostate cancer; type: cell-based, human; conditions: DU-145, 10 μM
Description: as §1

PC-3 = experiment: as above; type: cell-based, human; conditions: PC-3, 10 μM
Description: as §1

UO-31 = experiment: NCI 60 panel growth inhibition (SRB), renal cancer; type: cell-based, human; conditions: UO-31, 10 μM
Description: as §1

TK-10 = experiment: NCI 60 panel growth inhibition (SRB), renal cancer; type: cell-based, human; conditions: TK-10, 10 μM
Description: as §1

A498 = experiment: NCI 60 panel growth inhibition (SRB), renal cancer; type: cell-based, human; conditions: A498, 10 μM
Description: as §1

786-0 = experiment: NCI 60 panel growth inhibition (SRB), renal cancer; type: cell-based, human; conditions: 786-0, 10 μM
Description: as §1

ACHN = experiment: NCI 60 panel growth inhibition (SRB), renal cancer; type: cell-based, human; conditions: 10 μM
Description: as §1

RXF 393 = experiment: NCI 60 panel growth inhibition (SRB), renal cancer; type: cell-based, human; conditions: RXF 393, 10 μM
Description: as §1

SN12C = experiment: NCI 60 panel growth inhibition (SRB), renal cancer; type: cell-based, human; conditions: 10 μM
Description: as §1

CAKI-1 = experiment: NCI 60 panel growth inhibition (SRB), renal cancer; type: cell-based, human; conditions: CAKI-1, 10 μM
Description: as §1

BT-549 = experiment: NCI 60 panel growth inhibition (SRB), breast cancer; type: cell-based, human; conditions: BT-549, 10 μM
Description: as §1

T-47D = experiment: as above; type: cell-based, human; conditions: 10 μM
Description: as §1

HS 578T = experiment: as above; type: cell-based, human; conditions: 10 μM
Description: as §1

MDA-MB-468 = experiment: as above; type: cell-based, human; conditions: MDA-MB-468, 10 μM
Description: as §1

MCF7 = experiment: as above; type: cell-based, human; conditions: MCF7, 10 μM
Description: as §1

MDA-MB-231/ATCC = experiment: as above; type: cell-based, human; conditions: 10 μM
Description: as §1

[1] = test system: NCI 60 cancer cell line panel; experiment: NCI 60 panel growth inhibition (SRB), whole panel; type: cell-based, human; conditions: mean over NCI 60 panel, 10 μM
Description: as §1

Row | SMILES | GI% (NCI-H23) | GI% (HOP-62) | GI% (NCI-H460) | GI% (NCI-H322M) | GI% (NCI-H226) | GI% (EKVX) | GI% (A549/ATCC) | GI% (NCI-H522) | GI% (OVCAR-8) | GI% (NCI/ADR-RES) | GI% (SW-620) | GI% (KM12) | GI% (HCC-2998) | GI% (HCT-116) | GI% (HCT-15) | GI% (COLO 205) | GI% (DU-145) | GI% (UO-31) | GI% (TK-10) | GI% (A498) | other results
1 | O=C(COc1ccccc1-c1nc2ccccc2s1)NN=C1C(=O)Nc2ccccc21 [Compound 9a, 2-(2-(Benzo[d]thiazol-2-yl)phenoxy)-N′-(2-oxoindolin-3-ylidene)acetohydrazide] | 6.36% | – (GI% < 5%) | – (GI% < 5%) | – (GI% < 5%) | 23.61% | 37.48% | 11.63% | – (GI% < 5%) | – (GI% < 5%) | – (GI% < 5%) | – (GI% < 5%) | 6.23% | – (GI% < 5%) | – (GI% < 5%) | 8.99% | – (GI% < 5%) | 6.07% | 26.54% | – (GI% < 5%) | – (GI% < 5%) | GI% (HOP-92): 6.37%; GI% (PC-3): 19.26%; GI% (786-0): – (GI% < 5%); GI% (ACHN): – (GI% < 5%); GI% (RXF 393): 5.86%; GI% (SN12C): 7.64%; GI% (CAKI-1): 22.46%; melting point: 238 to 240 °C; GI% (BT-549): – (GI% < 5%); GI% (T-47D): 12.02%; GI% (HS 578T): 5.85%; GI% (MDA-MB-468): – (GI% < 5%); GI% (MCF7): 25.11%; GI% (MDA-MB-231/ATCC): – (GI% < 5%)
2 | COc1cccc(-c2nc3ccccc3s2)c1OCC(=O)NN=C1C(=O)Nc2ccc(Cl)cc21 [Compound 9k, 2-(2-(Benzo[d]thiazol-2-yl)-6-methoxyphenoxy)-N′-(5-chloro-2-oxoindolin-3-ylidene)acetohydrazide] | 17.71% | 6.81% | 8.94% | – (GI% < 5%) | 18.20% | 66.74% | 26.29% | 28.39% | 12.69% | 20.56% | – (GI% < 5%) | 22.47% | – (GI% < 5%) | 13.42% | 31.91% | – (GI% < 5%) | – (GI% < 5%) | 33.24% | – (GI% < 5%) | – (GI% < 5%) | Mean GI% [1]: 14.92%; GI% (786-0): 22.12%; GI% (ACHN): 26.60%; GI% (RXF 393): 37.81%; GI% (SN12C): 14.00%; GI% (CAKI-1): 39.78%; melting point: 263 to 265 °C; GI% (BT-549): 7.55%; GI% (T-47D): 40.62%; GI% (HS 578T): 8.19%; GI% (MDA-MB-468): 27.13%; GI% (MCF7): 35.93%; GI% (MDA-MB-231/ATCC): 19.83%
3 | COc1cccc(-c2nc3ccccc3s2)c1OCC(=O)NN=C1C(=O)Nc2ccc(Br)cc21 [Compound 9l, 2-(2-(Benzo[d]thiazol-2-yl)-6-methoxyphenoxy)-N′-(5-bromo-2-oxoindolin-3-ylidene)acetohydrazide] | 17.03% | 13.44% | 5.26% | – (GI% < 5%) | 12.06% | 66.66% | 17.13% | 25.73% | 10.38% | 19.73% | – (GI% < 5%) | 12.55% | – (GI% < 5%) | 7.62% | 21.00% | – (GI% < 5%) | – (GI% < 5%) | 30.14% | – (GI% < 5%) | – (GI% < 5%) | Mean GI% [1]: 12.52%; GI% (786-0): 16.93%; GI% (ACHN): 22.74%; GI% (RXF 393): 14.21%; GI% (SN12C): 16.14%; GI% (CAKI-1): 40.19%; melting point: 266 to 268 °C; GI% (BT-549): – (GI% < 5%); GI% (T-47D): 41.03%; GI% (HS 578T): – (GI% < 5%); GI% (MDA-MB-468): 19.79%; GI% (MCF7): 35.92%; GI% (MDA-MB-231/ATCC): 27.34%
4 | COc1ccc(-c2nc3ccccc3s2)cc1OCC(=O)NN=C1C(=O)Nc2ccc(C)cc21 [Compound 9n, 2-(5-(Benzo[d]thiazol-2-yl)-2-methoxyphenoxy)-N′-(5-methyl-2-oxoindolin-3-ylidene)acetohydrazide] | 12.32% | – (GI% < 5%) | – (GI% < 5%) | 10.32% | – (GI% < 5%) | – (GI% < 5%) | – (GI% < 5%) | – (GI% < 5%) | – (GI% < 5%) | 14.31% | 6.33% | – (GI% < 5%) | – (GI% < 5%) | – (GI% < 5%) | 9.62% | – (GI% < 5%) | 7.08% | – (GI% < 5%) | – (GI% < 5%) | – (GI% < 5%) | GI% (HOP-92): – (GI% < 5%); GI% (PC-3): – (GI% < 5%); GI% (786-0): 44.99%; GI% (ACHN): 8.57%; GI% (SN12C): 5.76%; GI% (CAKI-1): 12.63%; melting point: 224 to 226 °C; GI% (BT-549): – (GI% < 5%); GI% (T-47D): 13.50%; GI% (HS 578T): 5.72%; GI% (MDA-MB-468): – (GI% < 5%); GI% (MCF7): 25.33%; GI% (MDA-MB-231/ATCC): 12.37%
5 | CNC(=O)c1nn(C)c2c1C(C)(C)Cc1cnc(Nc3ccc(N4CCN(C)CC4)cc3)nc1-2 [Milciclib, reference compound] | 97.60% | 109.50% | 92.50% | 84.90% | 87.70% | 94.3% | 108% | 129.40% | 91.10% | 90.10% | 88.5% | 99.4% | 89.6% | 99.8% | 96.9% | 180.1% | 84.50% | 108.7% | 112.5% | 161.60% | GI% (HOP-92): 96.20%; GI% (PC-3): 92.10%; Mean GI% [1]: > 100%; Mean GI% ([1]; listed as milciclib): more than 100%; GI% (786-0): 87.70%; GI% (ACHN): 90.4%; GI% (RXF 393): 148.20%; GI% (SN12C): 88.70%; GI% (CAKI-1): 92.30%; GI% (BT-549): 94.80%; GI% (T-47D): 105.70%; GI% (MDA-MB-468): 113.40%; GI% (MCF7): 89.60%; GI% (MDA-MB-231/ATCC): 85.30%
